Experimental data as given in PMC6270258, “Diosgenone Synthesis, Anti-Malarial Activity and QSAR of Analogues of This Natural Product” (Molecules, 2013).
Where two headings read alike, the source gives them in different places.

Columns and labels:
[1] = Cytotoxicity, MTT colorimetric test; assay type: cell-based, human; conditions: human
Method: (§1) Steroidal derivatives’ cytotoxicity regarding the HepG2-A16 cell line was evaluated by colorimetric test using 3-(4,5-dimethylthiazolyl-2)-2,5-diphenyltetrazolium bromide (MTT), as described by Mosmann [28]. […] An aliquot of each derivative dilution (100 μL, 1,000, 100, 10 and 1 μg/mL) was then added to the wells in triplicate. […] The DMSO diluent agent was evaluated in complete medium and negative controls (untreated cells) were included. Absorbance was measured at 550 nm and statistical Prism software version 5.0 (GraphPad Software Inc., La Jolla, CA, USA) was used for calculating toxic concentration (CC50). Amphotericin B was used as positive control in this assay.

[2] = system: Plasmodium falciparum FCB-2 (chloroquine-resistant) strain; assay: In vitro antiplasmodial activity, [3H]hypoxanthine incorporation, FCB-2 strain; assay type: cell-based; conditions: for antiplasmodial activity (in words): P. falciparum FCB-2 and NF-54 strains, compared to diosgenone or parent; for IC50: Plasmodium falciparum, 48 h; for RI (resistance index): IC50 FCB-2 (resistant strain)/IC50 NF-54 (sensitive strain)
Method: (§2) A 10 mg/mL stock solution was prepared. […] A 50 μL sample was extracted from this solution and adjusted to 1,000 μL with RPMI-1640 without hypoxanthine until a final 500 μg/mL concentration was reached. The P. falciparum FcB-2 (Colombia) and NF54 (The Netherlands) strains were used for assessing anti-malarial activity.
(§3) Trager and Jensen’s method was used for culturing strains [24, 25]. The methods described by Desjardins et al. [26] were used for evaluating the structural analogs’ in vitro antiplasmodial activity, with some modifications. […] 1.0 µCi/mL of [3H] hypoxanthine (MP Biomedicals, Santa Ana, CA, USA) was added to each well and the plates were then incubated for 48 h at 37 °C in 5% CO2, 5% O2 in a balanced N2 atmosphere. Parasite DNA was harvested and radioactivity was determined by automatic TDCR liquid scintillation counter plate (Chameleon, Hidex Oy, Finland). Experiments were repeated twice with two or three replicates each. A nonlinear regression sigmoidal dose-response (variable slope) model was used to estimate concentration inhibiting 50% growth (IC50) values for each derivative.

[3] = system: Plasmodium falciparum NF-54 strain; assay: In vitro antiplasmodial activity, [3H]hypoxanthine incorporation, NF-54 strain; assay type: cell-based; conditions: 48 h, read-out: IC50 μM ± SD NF-54
Method: as §2, §3

[4] = system: HepG2-A16 human hepatoma cells; assay: Cytotoxicity, MTT colorimetric test; assay type: cell-based; conditions: for SI (selectivity index): CC50 HepG2/IC50 parasite FCB-2
Method: as §1

[5] = HepG2-A16 human hepatoma cells, HepG2-A16 cells, MTT, 48 h, read-out: CC50
[6] = HepG2-A16 cells, MTT, 48 h, read-out: CC50
[7] = P. falciparum FCB-2 chloroquine-resistant strain, read-out: IC50 μM ± SD FCB-2
[8] = P. falciparum NF-54 chloroquine-sensitive strain

Row | SMILES | CC50 at 48 h [1, 5] | CC50 at 48 h [1, 6] | antiplasmodial activity (in words) [2] | IC50 [2, 7] | IC50 [3, 8] | SI (selectivity index) [4] | RI (resistance index) [2] | IC50 ([2]; read-out: IC50 μM ± SD FCB-2, P. falciparum FCB-2 chloroquine-resistant strain, 48 h) | IC50 [3] | CC50 at 48 h [1] | melting point | cytotoxicity (in words) ([4]; HepG2-A16 cells) | cytotoxicity (in words) [4] | IC50 ([2]; read-out: IC50 μM ± SD FCB-2)
1 | C[C@@H]1[C@H](O)[C@@H](C)/C=C/C=C/C=C/C=C/C=C/C=C/C=C/[C@H](O[C@@H]2O[C@H](C)[C@@H](O)[C@H](N)[C@@H]2O)C[C@@H]2O[C@](O)(C[C@@H](O)C[C@@H](O)[C@H](O)CC[C@@H](O)C[C@@H](O)CC(=O)O[C@H]1C)C[C@H](O)[C@H]2C(=O)O [AF-B, amphotericin B, reference compound] | 39.6 µM |  |  |  |  |  |  |  |  |  |  |  |  | 
2 | C[C@@H]1CC[C@@]2(OC1)O[C@H]1C[C@H]3[C@@H]4CC=C5C[C@@H](O)CC[C@]5(C)[C@H]4CC[C@]3(C)[C@H]1[C@@H]2C [Compound 1, (25R)-5-spirosten-3β-ol, reference compound] |  | 1110 µM | lacked antiplasmodial activity | > 482 µM | > 482 µM |  |  |  |  |  |  |  |  | 
3 | CC(=O)[C@H]1CC[C@H]2[C@@H]3CCC4=CC(=O)CC[C@]4(C)[C@H]3CC[C@]12C [Compound 5, 4-Pregnene-3,20-dione, reference compound] |  | 193 µM | displayed antiplasmodial activity | 38.2 ± 1.2 µM | 25.4 ± 1.6 µM | 5.0 | 1.5 |  |  |  |  |  |  | 
4 | CC(=O)[C@@]1(O)CC[C@H]2[C@@H]3CCC4=CC(=O)CC[C@]4(C)[C@H]3CC[C@@]21C [Compound 6, 17-hydroxy-4-pregnene-3,20-dione, reference compound] | > 1140 µM |  | inactive |  |  |  | 1.0 | > 303 µM | > 303 µM |  |  |  |  | 
5 | CC1=CC[C@@]2(C)C(=C1)CC[C@H]1[C@@H]3C[C@@H]4O[C@]5(CC[C@@H](C)CO5)[C@@H](C)[C@@H]4[C@@]3(C)CC[C@@H]12 [Compound 7, (25R)-3-Methyl-spirostan-2,4-diene] |  |  | marginal activity compared to diosgenone | 70.4 ± 5.5 µM | 34.6 ± 3.3 µM | 3.1 | 2.0 |  |  | 217 µM | 172 to 174 °C |  |  | 
6 | C[C@@H]1CC[C@@]2(OC1)O[C@H]1C[C@H]3[C@@H]4CCC5=CC(O)(Cc6ccccc6)CC[C@]5(C)[C@H]4CC[C@]3(C)[C@H]1[C@@H]2C (stereo partly drawn) [Compound 8, (25R)-3-Benzyl-spirostan-4-en-3-ol] |  |  | inactive against both P. falciparum strains | > 396 µM | > 396 µM |  |  |  |  | > 1980 µM | 203 to 205 °C |  |  | 
7 | Cc1ccc(S(=O)(=O)NN=C2C=C3CCC4C(CCC5(C)C4CC4OC6(CCC(C)CO6)C(C)C45)C3(C)CC2)cc1 [Compound 9, (25R)-3-p-Toluenehydrazine-spirostan-4-ene] |  |  | marginal activity compared to diosgenone | 56.1 ± 0.3 µM | 52.5 ± 7.7 µM |  | 1.1 |  |  | > 1170 µM | 148 to 150 °C |  |  | 
8 | C[C@@H]1CC[C@@]2(OC1)O[C@H]1C[C@H]3[C@@H]4CCC56OC5C(=O)CC[C@]6(C)[C@H]4CC[C@]3(C)[C@H]1[C@@H]2C (stereo partly drawn) [Compound 10, (25R)-4,5-Epoxy-spirostan-3-one] |  |  | marginal activity compared to diosgenone | 56.7 ± 6.3 µM | 106 ± 7.7 µM | 1.8 | 0.5 |  |  | 101 µM | 184 to 186 °C |  |  | 
9 | C[C@@H]1CC[C@@]2(OC1)O[C@H]1C[C@H]3[C@@H]4CCC5CC(=O)CC[C@]5(C)[C@H]4CC[C@]3(C)[C@H]1[C@@H]2C (stereo partly drawn) [Compound 11, (25R)-Spirostan-3-one] | > 916 µM |  | inactive against both P. falciparum strains | > 482 µM | > 482 µM |  |  |  |  |  |  |  |  | 
10 | C[C@@H]1CC[C@@]2(OC1)O[C@H]1C[C@H]3[C@@H]4CCC5=CC(=O)C=C[C@]5(C)[C@H]4CC[C@]3(C)[C@H]1[C@@H]2C [Compound 12, (25R)-1,4-Spirostadien-3-one] |  |  |  | 36 ± 2.3 µM | 29.2 ± 1.1 µM |  | 1.2 |  |  | > 487 µM | 181 to 183 °C |  |  | 
11 | C[C@@H]1CC[C@@]2(OC1)O[C@H]1C[C@H]3[C@@H]4CCC5=CC(O)CC[C@]5(C)[C@H]4CC[C@]3(C)[C@H]1[C@@H]2C (stereo partly drawn) [Compound 13, (25R)-4-Spirosten-3-ol] | > 2410 µM |  | marginal activity compared to diosgenone | 63.2 ± 0.3 µM | 71.9 ± 0.3 µM |  | 0.9 |  |  |  |  |  |  | 
12 | C[C@@H](CI)CCC(=O)[C@@H](C)[C@H]1C(=O)CC2C3CCC4=CC(=O)CC[C@]4(C)C3CC[C@@]21C (stereo partly drawn) [Compound 15, (25R)-26-Iodine-cholest-4-en-3,16,22-trione] |  |  |  | 2.9 ± 0.3 µM | 2.2 ± 0.4 µM | 31.1 | 1.3 |  |  | 90.2 µM | 148 to 150 °C |  |  | 
13 | C[C@@H]1CC[C@@]2(OC1)O[C@H]1C[C@H]3[C@@H]4CC=C5C=CCC[C@]5(C)[C@H]4CC[C@]3(C)[C@H]1[C@@H]2C [Compound 19, (25R)-3,5-Spirostadiene] | > 2520 µM |  | neither active | 438 ± 12 µM | 370 ± 8.3 µM |  | 1.2 |  |  |  |  | nor toxic |  | 
14 | CC(=O)O[C@H]1CC[C@@]2(C)C(=CCC3C4C[C@H](OC(C)=O)C(C(C)C5=C(C(C)=O)C[C@@H](C)CO5)[C@@]4(C)CCC32)C1 (stereo partly drawn) [Compound 20, (25R)-23-Acetyl-3,16-diacetoxy-22,23-pyran-cholesta-5,22-diene] |  |  | neither active | > 380 µM | > 380 µM |  |  |  |  | > 1900 µM |  |  | nor toxic | 
15 | CC(=O)OC1C[C@H]2[C@@H]3CCC4=CC(=O)CC[C@]4(C)[C@H]3CC[C@]2(C)[C@H]1[C@H](C)C(=O)CC[C@@H](C)C=O (stereo partly drawn) [Compound 21, (25R)-16-Acetoxy-4-cholesten-3,22-dione-26-al] |  |  |  | 92.2 ± 12.3 µM | 70.8 ± 0.8 µM | 4.6 | 1.3 |  |  | 424 µM |  |  |  | 
16 | CC(=O)OC1C[C@H]2[C@@H]3CCC4CC(=O)CC[C@]4(C)[C@H]3CC[C@]2(C)[C@H]1[C@H](C)C(=O)CC[C@@H](C)CO (stereo partly drawn) [Compound 22, (25R)-16-Acetoxy-26-hydroxy-cholestan-3,22-dione] |  |  |  | 94.2 ± 5.3 µM | 62.1 ± 8.9 µM | 0.9 | 1.5 |  |  | 82.4 µM |  |  |  | 
17 | CC(=O)OC[C@H](C)CCC(=O)[C@@H](C)[C@H]1C(OC(C)=O)C[C@H]2[C@@H]3CCC4=CC(=O)CC[C@]4(C)[C@H]3CC[C@]12C (stereo partly drawn) [Compound 23, (25R)-16,26-Diacetoxy-4-cholesten-3,22-dione] |  |  |  | 17.3 ± 1.4 µM | 0.6 ± 0.9 µM | 16.2 | 28.8 |  |  | 281 µM |  |  | less toxic | 
18 | C[C@H](C(=O)CC[C@@H](C)C=O)[C@H]1C(=O)C[C@H]2[C@@H]3CCC4=CC(=O)CC[C@]4(C)[C@H]3CC[C@]12C [Compound 25] |  | 45.2 µM |  |  |  | 0.4 | 1.3 |  | 95.9 ± 8.3 µM |  |  |  |  | 123 ± 12.8 µM
